Bounds are passed on as bounds.

The subject of series [1] is A375 cells. The following applies: A375, 24 h, compared to untreated control.
Method: Changes in mitochondrial membrane potential were analyzed using the JC-1 Mitochondrial Membrane Potential Assay Kit (ab113850) according to the manufacturer’s instructions. […] After 24 h, cells were incubated with the JC-1 staining solution at 37 °C for 30 min in dark, washed with 1X Dilution Buffer, and analyzed by flow cytometry. […] The ratio of red J-aggregates to green JC-1 monomers was calculated to assess changes in mitochondrial membrane potential. Experiment was performed twice.
Series [2] relates to A375 cells. Put plainly: MTT cell viability assay, A375. It is filed as cell-based. Particulars: 72 h; for IC50: Homo sapiens, A-375, A375, MTT. How it is done:
(§1) A375, MRC-5, and HaCaT cell lines were obtained from the American Type Culture Collection (ATCC). 518A2 cell line was kindly provided by Dr. […]ć. All cell lines were cultured in RPMI 1640 medium supplemented with 2 g/L glucose, 10% fetal bovine serum (FBS), and antibiotics. […] Cell viability was assessed using the MTT assay (Sigma Aldrich, #M5655). […] After 72 h of incubation, absorbance was measured at 570 nm using a Multiskan SkyHigh microplate reader (Thermo Fisher Scientific, Helsinki, Finland). Values were corrected by subtracting the absorbance measured in wells containing cell-free medium with tested compounds.
Background: Tetrazolium dyes change colour on reduction, which living cells bring about.

For series [3], the system named is 518A2 cells. Put plainly: MTT cell viability assay, 518A2. It is filed as cell-based. Particulars: Homo sapiens; 518A2, MTT, 72 h. How it is done:
as §1

The subject of series [4] is A375R cells. Put plainly: MTT cell viability assay, vemurafenib-resistant A375R. It counts as cell-based. Particulars: for IC50: A375R, MTT, 72 h. How it is done: as §1
Series [5] relates to HaCaT (human keratinocytes). Put plainly: MTT cell viability assay, HaCaT. It is filed as cell-based. The following applies: 72 h. The protocol: as §1
Series [6] concerns MRC-5 (fetal fibroblasts). In words: MTT cell viability assay, MRC-5. It counts as cell-based. Particulars: Homo sapiens, MRC5; MRC-5, MTT, 72 h. The protocol: as §1
For series [7], the system named is A375 cells. Put plainly: Cellular uptake and subcellular distribution by LC-MS/MS. It counts as cell-based. Particulars: A375, 25 μM, 24 h; for Compound accumulation normalized to telmisartan, Chromatin Bound: chromatin-bound nuclear fraction; for Compound accumulation normalized to telmisartan, Cytoplasm: cytoplasmic fraction; for Compound accumulation normalized to telmisartan, Cytoskeleton: cytoskeletal fraction; for Compound cell accumulation normalized to telmisartan, Whole Lysate: μmol compound per μg cell protein normalized to telmisartan. How it is done: Cells were then trypsinized, washed with PBS and pelleted. For whole cell lysates, cell pellet was dissolved in RIPA buffer on ice. Fractions and whole cell lysates were stored at -80 °C until use. Protein concentration of lysates was determined with Pierce BCA Protein assay kit (Thermo Fisher #23225), and cell accumulation was calculated as μmol of compound per μg of cell protein and normalized to telmisartan. Concentrations of telmisartan and its derivatives were determined using liquid chromatography-tandem mass spectrometry (LC-MS/MS) method in positive HESI mode. The analysis was performed on UHPLC chromatograph […] (Thermo Fisher Scientific Inc., Madison, WI, USA), coupled to a triple quadrupole mass spectrometer TSQ Quantum Access MAX (Thermo Fisher Scientific Inc., Madison, WI, USA) with heated electrospray ionization (HESI) interface. The column was Zorbax Extend C18 (150 mm × 4.6 mm, 5 μm particle size). […] Experiment was repeated twice.

The target of series [8] is T1, AT1R (Homo sapiens, UniProt P30556).
T1 construct: endogenous in cells; host or cells: A375 melanoma cells (ATCC)
T1 sequence (P30556 1-359): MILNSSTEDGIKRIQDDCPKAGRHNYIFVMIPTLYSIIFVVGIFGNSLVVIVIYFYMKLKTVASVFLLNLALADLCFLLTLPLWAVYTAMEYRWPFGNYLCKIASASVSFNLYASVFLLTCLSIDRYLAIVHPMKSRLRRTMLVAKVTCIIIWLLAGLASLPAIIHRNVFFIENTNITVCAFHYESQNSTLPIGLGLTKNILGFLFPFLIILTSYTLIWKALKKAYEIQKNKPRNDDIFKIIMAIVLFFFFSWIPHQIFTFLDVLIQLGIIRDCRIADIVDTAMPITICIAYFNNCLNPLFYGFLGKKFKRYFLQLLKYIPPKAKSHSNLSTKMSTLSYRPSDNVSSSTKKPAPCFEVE
In words: Angiotensin II-induced Ca2+ release, Fluo-4 AM live-cell imaging. It is filed as cell-based. The following applies: 2 min; for Effect on AngII-induced Ca2+ increase (combination treatment): A375, 25 μM compound + 1 μM AngII. The protocol: Fluo-4 AM calcium indicator dye (F14201, Molecular Probes, Eugene, OR, USA) was used to observe Ca^2+ dynamics upon treatment, per manufacturer’s instructions. Briefly, 5000 A375 cells/well were seeded in 96-well optical bottom black cell culture plates (165305, Thermo Scientific). Fluo-4 AM stock solution in DMSO was mixed with equal volume of 20% Pluronic F-127 to assist in dispersion of AM esters before dilution into the loading medium. Twenty-four hours after seeding medium was removed, and cells were washed with HBBS without calcium and magnesium. Cells were stained in HBSS medium with 1.25 μM Fluo-4-AM for 30 min at 37 °C. After incubation, cells were washed and incubated in complete medium (10%FBS RPMI) to allow de-esterification for 30 min and then treated with 1 μM human Angiotensin II (A9525, Sigma Aldrich), 50 μM telmisartan, compounds 1, 3, and 8, or the combinations. Images were taken before addition of the treatment (0 min) and after 2 min of treatment on Zeiss PALM MicroBeam Axio Observer Z1 microscope (Carl Zeiss MicroImaging GmbH, Oberkochen, Germany) with Zeiss LD Plan-Neofluar 20×/0.4 Korr, ∞/0–1.5 mm lens and AxioVision SE64 Rel.4.9.1 software. Experiment was repeated three times. Integrated density of Fluo-4 fluorescence at 2 min of exposure to treatment was calculated with Image J, and normalized to the baseline fluorescence at time 0, in at least two random fields for each condition. Conditions were compared with one-way ANOVA and Tukey’s multiple comparisons test. p < 0.05 was considered statistically significant.

The test system of series [9] is A375R cells. Put plainly: Cell cycle distribution (PI, flow cytometry), A375R. It is filed as cell-based. Particulars: 25 µM, 72 h. The protocol: (§2) A375 and A375R cells were seeded in 6-well plates at a density of 150,000 cells per well. On the following day, the cells were treated with 25 µM concentrations of compounds 1, 3, and 8, as well as telmisartan. After 72 h of incubation, the cells were harvested using trypsin, washed with phosphate-buffered saline (PBS), fixed in ethanol, and stored at −20 °C until analysis. Ethanol-fixed cells were treated with RNase A (1 mg/mL) and stained with propidium iodide (PI; 400 µg/mL). A total of 20,000 events were recorded per sample. Quantitative analysis of the cell cycle phase distribution was performed by flow cytometry using a FACSCalibur flow cytometer (Becton Dickinson, San Jose, CA, USA) and BD CellQuest Pro Version 5.2.1 software. Experiment was performed three times. Cells under treatment were compared to controls for each cell phase separately with one-way ANOVA and Dunnett’s multiple comparison tests. p < 0.05 was considered statistically significant.

Details of series [10]: method as in PMID 11014323. Particulars: males, oral intake of 320 mg; cited from earlier work.
The subject of series [11] is A375 cells. In words: Cell cycle distribution (PI, flow cytometry), A375. It counts as cell-based. Particulars: A375, 25 µM, 72 h. How it is done:
as §2
On the technique in general: Flow cytometry measures light scatter and fluorescence of single cells or particles in a stream.

Series [12] concerns A375 cells. In words: Mitochondrial morphology staining (MitoTracker Green FM). It is filed as cell-based. The following applies: A375, 25 μM, 24 h. How it is done: For imaging of the mitochondrial morphology in live cells, A375 cells seeded in 96-well optical bottom plates, as above, were treated for 24 h with 25 μM telmisartan, compound 1, 3, or 8. Treatment was washed away, and cells were stained with 500 nM MitoTracker Green FM (#9074, Cell signaling Technology, Danvers, MA, USA) in RPMI without serum for 30 min at 37 °C. Cells were imaged on Zeiss PALM MicroBeam Axio Observer Z1 microscope (Carl Zeiss MicroImaging GmbH, Oberkochen, Germany) with Zeiss LD Plan-Neofluar 20×/0.4 Korr, ∞/0–1.5 mm lens and AxioVision software. Mitochondrial shape was quantified in images from two biological experimental repeats, in three random fields for each condition, using Image J Analyze Particles function. Images were first processed to 8-bit binary, and circularity and aspect ratio (major axis/minor axis) were calculated and plotted with Prism 9 (GraphPad Software, LLC, Boston, MA, USA). Treatments were compared with untreated control using one-way ANOVA and Dunnett’s multiple comparisons test. p < 0.05 was considered statistically significant.

Turning to `N#CC(C#N)=NNc1ccc(OC(F)(F)F)cc1` [FCCP, carbonyl cyanide 4-(trifluoromethoxy) phenylhydrazone], in series [1], the “Ratio of red JC-1 aggregates to green JC-1 monomers” value was “lowest red/green ratio”.

One may read the IC50 as the concentration at which inhibition is half-maximal. A lower IC50 goes with greater potency. Turning to `CCCc1nc2c(C)cc(-c3nc4ccccc4n3C)cc2n1Cc1ccc(-c2ccccc2C(=O)O)cc1` [Telmisartan, reference compound], the IC50 worked out at 59.1 ± 4.17 µM in [2]; 70.2 ± 3.83 µM in series [3]; 29.2 ± 3.88 µM in series [4]; 148 ± 2.89 µM in series [5]; 70.4 ± 5.61 µM in series [6]. In addition, in series [4] (A375R versus normal cell lines (HaCaT, MRC-5), from IC50 values), the Selectivity is reported as over 2.40. In addition, the “Compound accumulation normalized to telmisartan, Chromatin Bound” value in series [7] came to 1.00. Also, in series [7], the “Compound accumulation normalized to telmisartan, Cytoplasm” value turned out to be 1.00. Further, the “Compound accumulation normalized to telmisartan, Cytoskeleton” value in series [7] is given as 1.00. The “Accumulation in the membrane fraction” value in series [7] (membrane fraction) came to 0.197 µmol/L. In addition, the “Compound accumulation normalized to telmisartan, Membrane” value in [7] (membrane fraction) was found to be 1.00. Also, in series [7], the “Compound cell accumulation normalized to telmisartan, Whole Lysate” value was determined as 1.00. Further, the “Effect on AngII-induced Ca2+ increase (combination treatment)” value in [8] is “prevented AngII-induced Ca^2+ increase”. Moreover, in series [9], the Cell cycle distribution result is on record as “cell cycle profile comparable to that of the untreated control cells”. Moreover, in series [10], the “Maximum steady-state plasma level” value was “around 20 μM”.

As for `CCCc1nc2c(C)cc(-c3nc4ccccc4n3C)cc2n1Cc1ccc(-c2ccccc2C(=O)NC(Cc2cn(C)c3ccccc23)C(=O)O)cc1` (stereo not drawn) [compound 1, 2-{[4′-(1,7′-dimethyl-2′-propyl-1H-[2,5′]bibenzoimidazolyl-3′-ylmethyl)-biphenyl-2-carbonyl]-amino}-3-(1-methyl-1H-indol-3-yl)-propionic acid], the “Effect on cell viability at single concentration” value in [2] (A375, 25 μM, MTT) is given as “significant reductions in cell viability”. Further, the IC50 worked out at 27.2 ± 0.63 µM in series [2]; 23.5 ± 2.08 µM in [3]; 19.7 ± 8.87 µM in [4]; 43.9 ± 3.42 µM in [5]; 26.7 ± 2.48 µM in [6]. Also, in series [7], the “Compound accumulation normalized to telmisartan, Chromatin Bound” value turned out to be 36.22. Besides, in [7], the “Compound accumulation normalized to telmisartan, Cytoplasm” value turned out to be 17.80. The “Compound accumulation normalized to telmisartan, Cytoskeleton” value in series [7] was 21.14. For the same molecule, the “Compound accumulation normalized to telmisartan, Membrane” value in series [7] (membrane fraction) turned out to be 106.59. Moreover, the “Compound cell accumulation normalized to telmisartan, Whole Lysate” value in [7] was determined as 12.08. Further, in series [8], the “Effect on AngII-induced Ca2+ increase (combination treatment)” value is “did not prevent AngII-induced Ca^2+ increase”. Besides, in series [8] (A375, compound alone), the “Effect of compound alone on baseline Ca2+ signaling” value is recorded as “no significant changes in the baseline Ca^2+ signaling”. In addition, the Cell cycle distribution result in series [11] is “increased accumulation of cells in the subG1 phase, albeit not statistically significant”; in series [9] it was “cell accumulation in the G0/G1 phase”. The Mitochondrial network morphology entry in series [12] is “dramatic fission and clumping of mitochondria”.

For `CCCc1nc2c(C)cc(-c3nc4ccccc4n3C)cc2n1Cc1ccc(-c2ccccc2C(=O)NC(Cc2cnc[nH]2)C(=O)O)cc1` (stereo not drawn) [compound 2, 2-{[4′-(1,7′-dimethyl-2′-propyl-1H-[2,5′]bibenzoimidazolyl-3′-ylmethyl)-biphenyl-2-carbonyl]-amino}-3-(3H-imidazol-4-yl)-propionic acid], the half-maximal inhibitory concentration (IC50) in series [2] and in series [3] was over 150 µM in each case.

For `CCCc1nc2c(C)cc(-c3nc4ccccc4n3C)cc2n1Cc1ccc(-c2ccccc2C(=O)NC(C(=O)O)C(C)CC)cc1` (stereo not drawn) [compound 4, 2-{[4′-(1,7′-dimethyl-2′-propyl-1H-[2,5′]bibenzoimidazolyl-3′-ylmethyl)-biphenyl-2-carbonyl]-amino}-3-methyl-pentanoic acid], the half-inhibitory concentration (IC50) was 43 ± 6.02 µM in [2] and 49 ± 3.17 µM in [3].

In the case of `CCCc1nc2c(C)cc(-c3nc4ccccc4n3C)cc2n1Cc1ccc(-c2ccccc2C(=O)NCC(=O)O)cc1` [compound 5, {[4′-(1,7′-dimethyl-2′-propyl-1H-[2,5′]bibenzoimidazolyl-3′-ylmethyl)-biphenyl-2-carbonyl]-amino}-acetic acid], the concentration for half-maximal inhibition (IC50) in series [2] was found to be 86.22 ± 0.64 µM; in series [3], 81.5 ± 6.28 µM.

Consider `CCCc1nc2c(C)cc(-c3nc4ccccc4n3C)cc2n1Cc1ccc(-c2ccccc2C(=O)NCCCC(=O)O)cc1` [compound 6, 4-{[4′-(1,7′-dimethyl-2′-propyl-1H-[2,5′]bibenzoimidazolyl-3′-ylmethyl)-biphenyl-2-carbonyl]-amino}-butyric acid], for which the IC50 was determined as 116 ± 6.94 µM in series [2] and 89.2 ± 7.37 µM in series [3].

For `CCCc1nc2c(C)cc(-c3nc4ccccc4n3C)cc2n1Cc1ccc(-c2ccccc2C(=O)NC(CC(C)C)C(=O)O)cc1` (stereo not drawn) [compound 7, 2-{[4′-(1,7′-dimethyl-2′-propyl-1H-[2,5′]bibenzoimidazolyl-3′-ylmethyl)-biphenyl-2-carbonyl]-amino}-4-methyl-pentanoic acid], the IC50 in series [2] is 43.2 ± 3.55 µM; in [3] it was 39.7 ± 2.4 µM.
